Results on 1 compound are retold here after PMC5218480 (PLoS ONE, 2017).

This assay concerns MV-4-11 cells. Nature of the assay: Gene expression microarray analysis (Affymetrix PrimeView) and GSEA. The format is cell-based, human. More on the design: RFU PODN (11730768_x_at) / Fold change /veh PODN (11730768_x_at) / RFU LINC00158 (11744669_a_at) / Fold change /veh LINC00158 (11744669_a_at) / RFU DUSP10 (11751237_a_at) / Fold change /veh DUSP10 (11751237_a_at) / RFU ID3 (11757404_x_at) / Fold change /veh ID3 (11757404_x_at) / RFU PLEKHG5 (11737974_s_at) / Fold change /veh PLEKHG5 (11737974_s_at) / RFU LRRC4B (11730491_at) / Fold change /veh LRRC4B (11730491_at) / RFU GIMAP4 (11747438_a_at) / Fold change /veh GIMAP4 (11747438_a_at) / RFU KRT8 (11758183_x_at) / Fold change /veh KRT8 (11758183_x_at) / RFU CNN1 (11734310_a_at) / Fold change /veh CNN1 (11734310_a_at) / RFU VPS37D (11726825_at) / Fold change /veh VPS37D (11726825_at) / RFU C10orf10 (11716522_x_at) / Fold change /veh C10orf10 (11716522_x_at) / RFU KIR2DL2 /// KIR2DL4 /// KIR2DL5A /// KIR2DL5B /// KIR2DS1 /// KIR2DS2 /// KIR2DS3 /// KIR2DS4 /// KIR3DL3 /// KIR3DL3 /// KIR3DS1 (11738374_at) / Fold change /veh KIR2DL2 /// KIR2DL4 /// KIR2DL5A /// KIR2DL5B /// KIR2DS1 /// KIR2DS2 /// KIR2DS3 /// KIR2DS4 /// KIR3DL3 /// KIR3DL3 /// KIR3DS1 (11738374_at) / RFU C1QL1 (11718748_at) / Fold change /veh C1QL1 (11718748_at) / RFU TMPRSS4 (11747572_a_at) / Fold change /veh TMPRSS4 (11747572_a_at) / RFU HAMP (11756126_x_at) / Fold change /veh HAMP (11756126_x_at) / RFU RNFT2 (11725882_a_at) / Fold change /veh RNFT2 (11725882_a_at) / RFU NR4A2 (11747474_a_at) / Fold change /veh NR4A2 (11747474_a_at) / RFU ABCC12 (11746883_a_at) / Fold change /veh ABCC12 (11746883_a_at) / RFU TMEM136 (11760407_x_at) / Fold change /veh TMEM136 (11760407_x_at) / RFU CLDN22 /// WWC2 (11732394_at) / Fold change /veh CLDN22 /// WWC2 (11732394_at) / RFU HLA-DPB1 (11760878_x_at) / Fold change /veh HLA-DPB1 (11760878_x_at) / RFU SPINT1 (11716480_a_at) / Fold change /veh SPINT1 (11716480_a_at) / RFU GAP43 (11754022_s_at) / Fold change /veh GAP43 (11754022_s_at) / RFU A4GNT (11735810_at) / Fold change /veh A4GNT (11735810_at) / RFU PRB3 (11715151_x_at) / Fold change /veh PRB3 (11715151_x_at) / RFU TUBB4B (11761932_at) / Fold change /veh TUBB4B (11761932_at) / RFU CAPN14 (11732068_a_at) / Fold change /veh CAPN14 (11732068_a_at) / RFU TMCC2 (11721928_a_at) / Fold change /veh TMCC2 (11721928_a_at) / RFU IRGQ (11745062_a_at) / Fold change /veh IRGQ (11745062_a_at) / RFU FAM174B (11720279_a_at) / Fold change /veh FAM174B (11720279_a_at) / RFU TMPRSS4 (11748680_a_at) / Fold change /veh TMPRSS4 (11748680_a_at) / RFU FAM212B (11763350_a_at) / Fold change /veh FAM212B (11763350_a_at) / RFU PLEKHG5 (11743358_a_at) / Fold change /veh PLEKHG5 (11743358_a_at) / RFU ZSCAN30 (11745921_a_at) / Fold change /veh ZSCAN30 (11745921_a_at) / RFU CMKLR1 (11741424_a_at) / Fold change /veh CMKLR1 (11741424_a_at) / RFU LOC101060620 /// MAPK8IP1 (11723275_at) / Fold change /veh LOC101060620 /// MAPK8IP1 (11723275_at) / RFU SPTSSB (11747773_x_at) / Fold change /veh SPTSSB (11747773_x_at) / RFU PRSS12 (11739890_at) / Fold change /veh PRSS12 (11739890_at) / RFU BIN1 (11741810_x_at) / Fold change /veh BIN1 (11741810_x_at) / RFU WNT11 (11732464_a_at) / Fold change /veh WNT11 (11732464_a_at) / RFU C10orf10 (11716521_a_at) / Fold change /veh C10orf10 (11716521_a_at) / RFU C5orf56 (11738089_at) / Fold change /veh C5orf56 (11738089_at) / RFU CYB561 (11721691_x_at) / Fold change /veh CYB561 (11721691_x_at) / RFU ANKRD19P (11752326_a_at) / Fold change /veh ANKRD19P (11752326_a_at) / RFU OR2T12 /// OR2T33 /// OR2T8 (11738714_s_at) / Fold change /veh OR2T12 /// OR2T33 /// OR2T8 (11738714_s_at) / RFU VCAN (11748164_a_at) / Fold change /veh VCAN (11748164_a_at) / RFU JSRP1 (11732532_at) / Fold change /veh JSRP1 (11732532_at) / RFU KRTAP10-11 (11738290_x_at) / Fold change /veh KRTAP10-11 (11738290_x_at) / RFU MYO3A (11730013_a_at) / Fold change /veh MYO3A (11730013_a_at) / RFU EBF3 (11725865_a_at) / Fold change /veh EBF3 (11725865_a_at) / RFU CAMK2N1 (11719241_x_at) / Fold change /veh CAMK2N1 (11719241_x_at) / RFU C5orf56 (11738088_a_at) / Fold change /veh C5orf56 (11738088_a_at) / RFU OLFML3 (11715873_a_at) / Fold change /veh OLFML3 (11715873_a_at) / RFU LOC100653217 /// NTM (11731650_a_at) / Fold change /veh LOC100653217 /// NTM (11731650_a_at) / RFU MAPK11 (11762145_a_at) / Fold change /veh MAPK11 (11762145_a_at) / RFU FIZ1 (11724087_x_at) / Fold change /veh FIZ1 (11724087_x_at) / RFU OASL (11726364_x_at) / Fold change /veh OASL (11726364_x_at) / RFU SOX15 (11748057_x_at) / Fold change /veh SOX15 (11748057_x_at) / RFU CD79A (11719716_a_at) / Fold change /veh CD79A (11719716_a_at) / RFU HIST1H1D (11736915_at) / Fold change /veh HIST1H1D (11736915_at) / RFU CASKIN2 (11723855_a_at) / Fold change /veh CASKIN2 (11723855_a_at) / RFU LOC730098 (11760151_x_at) / Fold change /veh LOC730098 (11760151_x_at) / RFU OR4N2 (11742367_at) / Fold change /veh OR4N2 (11742367_at) / RFU PRRT2 (11749266_a_at) / Fold change /veh PRRT2 (11749266_a_at) / RFU SNX32 (11753110_a_at) / Fold change /veh SNX32 (11753110_a_at) / RFU CDHR5 (11726645_a_at) / Fold change /veh CDHR5 (11726645_a_at) / RFU RCAN1 (11760418_a_at) / Fold change /veh RCAN1 (11760418_a_at) / RFU FAM167A (11723789_a_at) / Fold change /veh FAM167A (11723789_a_at) / RFU FAM26E (11764081_at) / Fold change /veh FAM26E (11764081_at) / RFU ISYNA1 (11749810_s_at) / Fold change /veh ISYNA1 (11749810_s_at) / RFU ACY1 (11761880_at) / Fold change /veh ACY1 (11761880_at) / RFU 11764098_at / Fold change /veh 11764098_at / RFU SAMD14 (11745864_x_at) / Fold change /veh SAMD14 (11745864_x_at) / RFU NPB (11741838_a_at) / Fold change /veh NPB (11741838_a_at) / RFU TMPRSS6 (11731388_a_at) / Fold change /veh TMPRSS6 (11731388_a_at) / RFU KRTAP10-2 (11738614_at) / Fold change /veh KRTAP10-2 (11738614_at) / RFU ARHGAP8 /// PRR5-ARHGAP8 (11727945_x_at) / Fold change /veh ARHGAP8 /// PRR5-ARHGAP8 (11727945_x_at) / RFU KRTAP5-7 /// NADSYN1 (11734609_at) / Fold change /veh KRTAP5-7 /// NADSYN1 (11734609_at) / RFU RASL12 (11751679_a_at) / Fold change /veh RASL12 (11751679_a_at) / RFU CDKN2B (11736163_a_at) / Fold change /veh CDKN2B (11736163_a_at) / RFU PRF1 (11729649_at) / Fold change /veh PRF1 (11729649_at) / RFU, ZNF638 /// ZNF638-IT1 / Fold change vs veh, ZNF638 /// ZNF638-IT1 / RFU, PANK3 / Fold change vs veh, PANK3 / RFU, SH3YL1 / Fold change vs veh, SH3YL1 / RFU, ZEB2 / Fold change vs veh, ZEB2 / RFU, NRIP1 / Fold change vs veh, NRIP1 / RFU, PTTG1IP / Fold change vs veh, PTTG1IP / RFU, CAPN2 / Fold change vs veh, CAPN2 / RFU, MED14 / Fold change vs veh, MED14 / RFU, SNORA58 / Fold change vs veh, SNORA58 / RFU, C1orf63 / Fold change vs veh, C1orf63 / RFU, LRRFIP1 / Fold change vs veh, LRRFIP1 / RFU, NDUFAF7 / Fold change vs veh, NDUFAF7 / RFU, SLC12A2 / Fold change vs veh, SLC12A2 / RFU, IBTK / Fold change vs veh, IBTK / RFU, ESF1 / Fold change vs veh, ESF1 / Fold change vs veh, TMEM50B / RFU, TAOK1 / Fold change vs veh, TAOK1 / RFU, ACBD3 / Fold change vs veh, ACBD3 / RFU, TMA16 / Fold change vs veh, TMA16 / RFU, RWDD3 / Fold change vs veh, RWDD3 / RFU, BCAT1 / Fold change vs veh, BCAT1 / RFU, EDEM3 / Fold change vs veh, EDEM3 / RFU, TMEM33 / Fold change vs veh, TMEM33 / RFU, WDR75 / Fold change vs veh, WDR75 / RFU, AHCTF1 / Fold change vs veh, AHCTF1 / RFU, TFRC / Fold change vs veh, TFRC / RFU, ZDHHC17 / Fold change vs veh, ZDHHC17 / RFU, NOM1 / Fold change vs veh, NOM1 / RFU, ARL8B / Fold change vs veh, ARL8B / RFU, ZBTB11 / Fold change vs veh, ZBTB11 / RFU, TAMM41 / Fold change vs veh, TAMM41 / RFU, KIAA1704 /// LOC100996395 / Fold change vs veh, KIAA1704 /// LOC100996395 / RFU, ING1 / Fold change vs veh, ING1 / RFU, TRMT61B / Fold change vs veh, TRMT61B / RFU, FUBP3 / Fold change vs veh, FUBP3 / RFU, TP53 / Fold change vs veh, TP53 / RFU, TNKS2 / Fold change vs veh, TNKS2 / RFU, ZFP14 / Fold change vs veh, ZFP14 / RFU, ACTR2 / Fold change vs veh, ACTR2 / RFU, PPP3R1 / Fold change vs veh, PPP3R1 / RFU, PIK3R1 / Fold change vs veh, PIK3R1 / RFU, HNRNPA1 / Fold change vs veh, HNRNPA1 / RFU, RNF170 / Fold change vs veh, RNF170 / RFU, ZNF28 / Fold change vs veh, ZNF28 / RFU, RNGTT / Fold change vs veh, RNGTT / RFU, OGT / Fold change vs veh, OGT / RFU, BRD1 / Fold change vs veh, BRD1 / RFU, MARS / Fold change vs veh, MARS / RFU, ZNF655 / Fold change vs veh, ZNF655 / RFU, FAHD1 / Fold change vs veh, FAHD1 / RFU, BDP1 / Fold change vs veh, BDP1 / RFU, LRRCC1 / Fold change vs veh, LRRCC1 / RFU, ARID1A / Fold change vs veh, ARID1A / RFU, ZNF146 / Fold change vs veh, ZNF146 / RFU, ZNF330 / Fold change vs veh, ZNF330 / RFU, GPN3 / Fold change vs veh, GPN3 / RFU, C9orf123 / Fold change vs veh, C9orf123 / RFU, N4BP2L2 / Fold change vs veh, N4BP2L2 / RFU, ARFIP1 / Fold change vs veh, ARFIP1 / RFU, FAM179B / Fold change vs veh, FAM179B / RFU, BCL10 / Fold change vs veh, BCL10 / RFU, UHRF1BP1L / Fold change vs veh, UHRF1BP1L / RFU, BET1 / Fold change vs veh, BET1 / RFU, CNOT2 / Fold change vs veh, CNOT2 / RFU, ZNF268 / Fold change vs veh, ZNF268 / Fold change vs veh, ZNF507 / RFU, DGCR2 / Fold change vs veh, DGCR2 / RFU, WDSUB1 / Fold change vs veh, WDSUB1 / Fold change vs veh, HSP90B1 /// MIR3652 / RFU, ADSS / Fold change vs veh, ADSS / RFU, GK / Fold change vs veh, GK / RFU, ZNF148 / Fold change vs veh, ZNF148 / RFU, TAF9 / Fold change vs veh, TAF9 / RFU, SLC1A5 / Fold change vs veh, SLC1A5 / RFU, SLMO2 / Fold change vs veh, SLMO2 / RFU, ABCC4 / Fold change vs veh, ABCC4 / RFU, LOC101060439 /// RAP1B / Fold change vs veh, LOC101060439 /// RAP1B / RFU, RFX7 / Fold change vs veh, RFX7 / RFU, GTPBP10 / Fold change vs veh, GTPBP10 / RFU, CNEP1R1 / Fold change vs veh, CNEP1R1 / RFU, BIVM-ERCC5 /// ERCC5 / Fold change vs veh, BIVM-ERCC5 /// ERCC5 / RFU, ILF3 / Fold change vs veh, ILF3 / RFU 11762660_at / Fold change /veh 11762660_at / RFU VCAN (11757783_s_at) / Fold change /veh VCAN (11757783_s_at) / RFU DDX43 (11728927_at) / Fold change /veh DDX43 (11728927_at) / RFU KRT8 (11758188_x_at) / Fold change /veh KRT8 (11758188_x_at) / RFU NKD1 (11759106_at) / Fold change /veh NKD1 (11759106_at) / RFU SRD5A1 (11742802_a_at) / Fold change /veh SRD5A1 (11742802_a_at) / RFU TPSAB1 /// TPSB2 (11721975_s_at) / Fold change /veh TPSAB1 /// TPSB2 (11721975_s_at) / RFU GSTM3 (11746129_a_at) / Fold change /veh GSTM3 (11746129_a_at) / RFU IL23R (11737362_x_at) / Fold change /veh IL23R (11737362_x_at) / RFU TMEM51 (11727254_a_at) / Fold change /veh TMEM51 (11727254_a_at) / RFU PIWIL2 (11732686_x_at) / Fold change /veh PIWIL2 (11732686_x_at) / RFU ORM1 (11744905_x_at) / Fold change /veh ORM1 (11744905_x_at) / RFU CCDC152 (11743942_at) / Fold change /veh CCDC152 (11743942_at) / RFU ECM1 (11717891_a_at) / Fold change /veh ECM1 (11717891_a_at) / RFU IL23R (11748794_a_at) / Fold change /veh IL23R (11748794_a_at) / RFU TNFAIP8L3 (11732012_x_at) / Fold change /veh TNFAIP8L3 (11732012_x_at) / RFU MBOAT4 (11741988_at) / Fold change /veh MBOAT4 (11741988_at) / RFU 11764193_at / Fold change /veh 11764193_at / RFU TMEM53 (11763286_at) / Fold change /veh TMEM53 (11763286_at) / RFU MAGEB2 (11727129_at) / Fold change /veh MAGEB2 (11727129_at) / RFU TMEM200A (11744735_a_at) / Fold change /veh TMEM200A (11744735_a_at) / RFU CCDC152 (11751479_a_at) / Fold change /veh CCDC152 (11751479_a_at) / RFU FAM211A (11726209_a_at) / Fold change /veh FAM211A (11726209_a_at) / RFU RGS16 (11746705_a_at) / Fold change /veh RGS16 (11746705_a_at) / RFU VCAN (11755009_s_at) / Fold change /veh VCAN (11755009_s_at) / RFU RHOB (11743442_s_at) / Fold change /veh RHOB (11743442_s_at) / RFU RGS16 (11720943_a_at) / Fold change /veh RGS16 (11720943_a_at) / RFU RGS16 (11720944_at) / Fold change /veh RGS16 (11720944_at) / RFU, VPS4B / Fold change vs veh, VPS4B / RFU, CREB1 / Fold change vs veh, CREB1 / RFU, DNAJC13 / Fold change vs veh, DNAJC13 / RFU, GNAQ / Fold change vs veh, GNAQ / RFU, CDK5R1 / Fold change vs veh, CDK5R1 / RFU, ZRANB3 / Fold change vs veh, ZRANB3 / RFU, CUL4A / Fold change vs veh, CUL4A / RFU, CCNY / Fold change vs veh, CCNY / RFU, UFL1 / Fold change vs veh, UFL1 / RFU, COG3 / Fold change vs veh, COG3 / RFU, DIAPH2 / Fold change vs veh, DIAPH2 / RFU, SKA2 / Fold change vs veh, SKA2 / RFU, AFF3 / Fold change vs veh, AFF3 / RFU, LMF1 / Fold change vs veh, LMF1 / RFU, IPO11 / Fold change vs veh, IPO11 / RFU, DFFB / Fold change vs veh, DFFB / RFU, FOXP1 / Fold change vs veh, FOXP1 / RFU, CARD8 / Fold change vs veh, CARD8 / RFU, STRN3 / Fold change vs veh, STRN3 / RFU, ADK / Fold change vs veh, ADK / RFU, RASSF2 / Fold change vs veh, RASSF2 / RFU, WIPF1 / Fold change vs veh, WIPF1 / RFU, LARP1B / Fold change vs veh, LARP1B / RFU, RASA1 / Fold change vs veh, RASA1 / RFU, RB1 / Fold change vs veh, RB1 / RFU, PPFIA1 / Fold change vs veh, PPFIA1 / RFU, MAT2A / Fold change vs veh, MAT2A / RFU, CCT5 / Fold change vs veh, CCT5 / RFU, WDR92 / Fold change vs veh, WDR92 / RFU, CUX1 / Fold change vs veh, CUX1 / RFU, TTC7A / Fold change vs veh, TTC7A / RFU, TMEM135 / Fold change vs veh, TMEM135 / RFU, DEPTOR / Fold change vs veh, DEPTOR / RFU, CPM / Fold change vs veh, CPM / RFU, DNAJB6 / Fold change vs veh, DNAJB6 / RFU, CACNA2D3 / Fold change vs veh, CACNA2D3 / RFU, DTX4 / Fold change vs veh, DTX4 / RFU, TFCP2 / Fold change vs veh, TFCP2 / RFU, GMCL1 /// GMCL1P1 / Fold change vs veh, GMCL1 /// GMCL1P1 / RFU, AEBP2 / Fold change vs veh, AEBP2 / RFU, SNHG1 /// SNORD22 /// SNORD25 /// SNORD26 /// SNORD27 /// SNORD28 /// SNORD29 /// SNORD31 / Fold change vs veh, SNHG1 /// SNORD22 /// SNORD25 /// SNORD26 /// SNORD27 /// SNORD28 /// SNORD29 /// SNORD31 / Fold change (Aza/veh), C12orf56 (ProbeSet 11735607_a_at) / Fold change (ACY-1035/veh), C12orf56 (ProbeSet 11735607_a_at) / Fold change (Aza/veh), FGFR1OP (ProbeSet 11751329_s_at) / Fold change (ACY-1035/veh), FGFR1OP (ProbeSet 11751329_s_at) / Fold change (Aza/veh), VPS36 (ProbeSet 11739960_a_at) / Fold change (ACY-1035/veh), VPS36 (ProbeSet 11739960_a_at) / RFU SYPL1 (11715823_x_at) / Fold change /veh SYPL1 (11715823_x_at) / RFU IGFBP7 (11715501_s_at) / Fold change /veh IGFBP7 (11715501_s_at) / RFU REEP3 (11722064_at) / Fold change /veh REEP3 (11722064_at) / RFU IGLL1 (11728026_x_at) / Fold change /veh IGLL1 (11728026_x_at): dose or concentration left out as unconfirmed. The following applies: ProbeSet 11725100_s_at; LIST B.

Regarding `Nc1ccc(-c2cccs2)cc1NC(=O)c1ccc2c(c1)cc(C1CC1)n2CCN1CCOCC1` [ACY-1035], the “RFU, ESF1” value was 97.73 RFU.
